# What was measured:
# [1] = MTT assay (cell viability), in vitro epithelial tissue model; format: cell-based; conditions: human, pH 5; galantamine lactate 40 mg/ml and PN159 at all concentrations tested (25, 50, 100 μM)
# [2] = system: EpiAirway™ Cell Membrane (mucosal epithelial cell layer); assay: Permeation kinetics across the in vitro epithelial tissue model; conditions: for Perm(x)/Perm(159) +/− SEM*: mean values from multiple repeats; for PTH1-34 permeation: 2 mg/ml PTH, pH 4.5
# Method: The EpiAirway™ system was developed by MatTek Corp (Ashland, Mass.) as a model of the pseudostratified epithelium lining the respiratory tract. The epithelial cells are grown on porous membrane-bottomed cell culture inserts at an air-liquid interface, which results in differentiation of the cells to a highly polarized morphology. The apical surface is ciliated with a microvillous ultrastructure and the epithelium produces mucus (the presence of mucin has been confirmed by immunoblotting). The inserts have a diameter of 0.875 cm, providing a surface area of 0.6 cm^2. The cells are plated onto the inserts at the factory approximately three weeks before shipping. One “kit” consists of 24 units.
# A. A “kit” of 24 EpiAirway™ units can routinely be employed for evaluating five different formulations, each of which is applied to quadruplicate wells. Each well is employed for determination of permeation kinetics (4 time points), transepithelial electrical resistance (TER). An additional set of wells is employed as controls, which are sham treated during determination of permeation kinetics, but are otherwise handled identically to the test sample-containing units for determinations of transepithelial resistance and viability.
# B. In all experiments, the mucosal delivery formulation to be studied is applied to the apical surface of each unit in a volume of 100 μL, which is sufficient to cover the entire apical surface. An appropriate volume of the test formulation at the concentration applied to the apical surface (no more than 100 μL is generally needed) is set aside for subsequent determination of concentration of the active material by ELISA or other designated assay.
# D. In order to minimize potential sources of error and avoid any formation of concentration gradients, the units are transferred from one 0.9 mL-containing well to another at each time point in the study. These transfers are made at the following time points, based on a zero time at which the 100 μL volume of test material was applied to the apical surface: 15 minutes, 30 minutes, 60 minutes, and 120 minutes.
# F. At the completion of each time point, the medium is removed from the well from which each unit was transferred, and aliquotted into two tubes (one tube receives 700 μL and the other 200 μL) for determination of the concentration of permeated test material and, in the event that the test material is cytotoxic, for release of the cytosolic enzyme, lactate dehydrogenase, from the epithelium. These samples are kept in the refrigerator if the assays are to be conducted within 24 hours, or the samples are subaliquotted and kept frozen at −80° C. until thawed once for assays. Repeated freeze-thaw cycles are to be avoided.
# EIA kit (p/n S-1178(EIAH6101) was purchased from Peninsula Laboratories Inc. (Division of BACHEM, San Carlos, Calif., 800-922-1516). 17×120 mm polypropylene conical tubes (p/n 352097, Falcon, Franklin Lakes, N.J.) were used for all sample preparations. Eight standards were used for PTH quantitation. The rest of the assay procedure was the same as the kit inserts.
# The instant study was designed to evaluate the effect of PN159 itself or in combination with additional permeation enhancers on PTH permeation. The PN159 concentrations evaluated are 25, 50, and 100 μM. The additional permeation enhancers are 45 mg/ml M-β-CD, 1 mg/ml DDPC, and 1 mg/ml EDTA. Sorbitol was used as a tonicifier (146-190 mM) to adjust the osmolarity of formulations to 220 mOsm/kg. The formulation pH was fixed at 4.5. PTH was chosen as a model peptide in this example. 2 mg/ml PTH was combined with PN159 with or without additional permeation enhancers. The combination was tested using an in vitro epithelial tissue model to monitor PTH permeation, transepithelial electrical resistance (TER), and the cytotoxicity of the formulation by LDH assay.
# The effect of PN159 on permeation of MC-4RA was evaluated in this study.
# [3] = Chemical stability of PN159 in solution (stability indicating HPLC); format: physicochemical; conditions: pH 9 and/or elevated temperature, e.g., 40 to 50° C.
# Method: The chemical stability of the PN159 was determined under therapeutically relevant storage conditions. A stability indicating HPLC method was employed. Solutions (50 mM) were stored at various pH (4.0, 7.3, and 9.0) and temperature (5° C., 25° C., 35° C., 40° C., and 50° C.) conditions. Samples at pH 4 contained 10 mM citrate buffer. Samples at pH 7.3 and 9.0 contained 10 mM phosphate buffer. Representative storage stability data (including the Arrhenius plot) are depicted in FIG. 6. […] For example, at 5° C. and pH 4.0 or pH7.3, there was essentially 100% recovery of PN159 for six month storage. […] The pH range of 4.0 to 7.3 and the temperature range of refrigerated to ambient are most relevant for intranasal formulations.
compound,measurement,setting,value
CC(C)C[C@H](NC(=O)[C@H](C)NC(=O)[C@H](CCCCN)NC(=O)[C@H](CC(C)C)NC(=O)[C@H](C)NC(=O)[C@H](CC(C)C)NC(=O)[C@H](CCCCN)NC(=O)[C@H](CC(C)C)NC(=O)[C@H](C)NC(=O)[C@H](CC(C)C)NC(=O)[C@@H](N)CCCCN)C(=O)N[C@@H](CCCCN)C(=O)N[C@@H](C)C(=O)N[C@@H](C)C(=O)N[C@@H](CC(C)C)C(=O)N[C@@H](CCCCN)C(=O)N[C@@H](CC(C)C)C(=O)N[C@@H](C)C(N)=O [PN159],viability,[1],> 80%
same,Perm(x)/Perm(159) +/− SEM*,"[2]; Example 7, length changes, relative to PN159",1.00
same,permeation of MC-4RA,"[2]; PN159 5, 25, 50, 100 μM, 10 mg/ml MC-4RA, 45 mg/ml M-β-CD, pH 4",significantly enhance epithelial permeation
same,PTH1-34 permeation,"[2]; PN159 25, 50, 100 μM without additional enhancers",Significant increase in PTH permeation
same,PTH1-34 permeation,[2]; PN159 combined with 45/1/1 mg/ml M-b-CD/DDPC/EDTA,Additional increase in PTH permeation
same,Perm(x)/Perm(159) +/− SEM,"[2]; Table 6, D-amino acid substitutions, relative to PN159",1.00 +/− 0.13
same,Perm(x)/Perm(159) +/− SEM*,"[2]; Table 9, hydrophobic faces, relative to PN159",1.00 +/− 0.13
same,chemical stability (in words),[3],rapid deterioration

# Reference: US20060062758A1, “Tight junction modulator peptide PN159 for enhanced mucosal delivery of therapeutic compounds” (Nastech Pharmaceutical Comapny Inc., priority 2004, published 2006)
